{"source": "paper PMC12785453", "about": "“Oral Fluid Concentrations and Pharmacological Effects of Clephedrone and Methylone in Humans” (International Journal of Molecular Sciences, 2025)", "key": {"[1]": {"tested_on": "humans", "conditions": "cited from earlier work"}, "[2]": {"tested_on": "healthy male participants", "assay": "Physiological effects (SBP, DBP, HR, T), controlled methylone pilot clinical trial", "format": "in vivo, humans", "experimental": "Methylone pharmacology was evaluated in a study designed as a randomized, double-blind, placebo-controlled, crossover clinical trial. Four pilot studies were conducted administering methylone at oral doses of 50 (n = 3), 100 (n = 6), 150 (n = 5), and 200 mg (n = 7). Participants attended 3 experimental sessions separated by a one-week wash-out period and received two doses of methylone (one dose per experimental session) compared to placebo, except in the last pilot study in which participants received one dose of methylone, compared to MDMA and placebo. However, in this manuscript, only the results corresponding to the highest methylone doses (n = 12; 150 and 200 mg; mean dose = 179.2 mg) are presented, to enable comparison with clephedrone self-administration. Participants were recruited by word of mouth in the volunteer database of the clinical pharmacology unit.\nParticipants of the naturalistic clephedrone study were summoned at 15:00 h at the private club where sessions were carried out. The club remained closed to the public until the end of the session, approximately at 21:00 h. As a naturalistic study, participants were left free to talk, read, play games, or listen to music in the time between study evaluations. To avoid possible influences between participants, they were asked to refrain from talking about the effects of the self-administered substance. The experimental sessions of the controlled pilot trial were carried out at the Clinical Research Unit (UPIC) of the Germans Trias i Pujol hospital, where participants were summoned at 7:45 a.m. after fasting overnight and remained there for approximately 11 h.\nMethylone hydrochloride of high purity in powder form was acquired from LGC Standards (Teddington, UK) for the controlled study. The Pharmacy Department of the Hospital Universitari Germans Trias i Pujol was responsible for manufacturing, storing, and dispensing identical and opaque soft gelatin capsules containing 50 mg of methylone or a placebo (maltodextrin). Treatment consisted of 5 capsules that combined methylone and/or a placebo to reach the target dose. Details can be found in the previous article.\nIn the controlled methylone study, vital signs monitors (Philips Sure Signs VM4 monitors, Philips, Amsterdam, The Netherlands) were used to measure SBP, DBP, HR, and oral temperature at baseline (−30 and −15 min) and 0.25, 0.50, 0.75, 1.5, 2, 3, 4, 6, 8, 10, and 24 h after administration. For these evaluations, participants rested in hospital beds in a position of back elevation. Furthermore, electrocardiograms were constantly monitored throughout the sessions for safety reasons.\nFor statistical analysis, values of physiological (SBP, DBP, HR, and T) and subjective effects (VAS, ARCI, and VESSPA-SSE) were baseline–adjusted. Maximum effects (Emax) and the time needed to reach maximum effects (Tmax) were determined, and the area under the curve up to 5 h (AUC0–5h) for clephedrone and up to 6 h (AUC0–6h) for methylone was calculated using the trapezoidal rule. Emax and AUC values are presented as mean ± standard deviation, whereas Tmax is presented in median (range).\nTo find possible significant changes through the time course compared to baseline, a Dunnett multiple comparison test was carried out to compare each time point with baseline in both drug conditions. For clephedrone the comparisons were 0–0.5 h, 0–1 h, 0–1.5 h, 0–2 h, 0–3 h, 0–4 h and 0–5 h, and for methylone this analysis included 0–0.25 h, 0–0.5 h, 0–0.75 h, 0–1 h, 0–1.5 h, 0–2 h, 0–3 h, 0–4 h and 0–6 h. Given their different study designs, no comparative analysis between the time courses of both synthetic cathinones was conducted."}, "[3]": {"conditions": "150 or 200 mg oral, n=12, listed as methylone"}, "[4]": {"conditions": "AUC0–6h, 150 or 200 mg oral, n=12"}}}
{"smiles": "CNC(C)C(=O)c1ccc2c(c1)OCO2", "note": "(stereo not drawn) [Methylone, 3,4-methylenedioxy-N-methylcathinone]", "values": [{"measurement": "Persistence of heart rate increases", "setting": "[1]; naturalistic and controlled environments", "value": "8 to 10", "unit": "h"}, {"measurement": "Time of peak effects following self-administration", "setting": "[1]; naturalistic conditions", "value": 2, "unit": "h"}, {"measurement": "Onset of cardiovascular effects after administration", "setting": "[2]; 150 or 200 mg oral", "value": 0.5, "unit": "h"}, {"measurement": "SBP effects returned to baseline", "setting": "[2]; 150 or 200 mg oral", "value": 3, "unit": "h"}, {"measurement": "DBP Emax", "setting": "[2]; 150 or 200 mg oral, n=12", "value": "3.75 ± 11.52", "unit": "mmHg"}, {"measurement": "HR Emax", "setting": "[2]; 150 or 200 mg oral, n=12", "value": "28.75 ± 16.09", "unit": "bpm"}, {"measurement": "SBP Emax", "setting": "[2]; 150 or 200 mg oral, n=12", "value": "27.04 ± 10.72", "unit": "mmHg"}, {"measurement": "DBP Emax", "setting": "[2]; [3]", "value": 3.75, "unit": "mmHg"}, {"measurement": "HR Emax", "setting": "[2]; [3]", "value": 28.75, "unit": "bpm"}, {"measurement": "SBP Emax", "setting": "[2]; [3]", "value": 27.04, "unit": "mmHg"}, {"measurement": "HR AUC0-5/6 h", "setting": "[2]; [4]", "value": "97.07 ± 69.24", "unit": "bpm·h"}, {"measurement": "SBP AUC0-5/6 h", "setting": "[2]; [4]", "value": "38.70 ± 26.84", "unit": "mmHg·h"}, {"measurement": "T AUC0-5/6 h", "setting": "[2]; AUC0–6h, oral temperature, 150 or 200 mg oral, n=12", "value": "0.88 ± 1.34", "unit": "°C·h"}, {"measurement": "Tolerability, serious adverse events", "setting": "[2]; all administered doses (150 or 200 mg oral)", "value": "well tolerated"}, {"measurement": "T Emax", "setting": "[2]; oral temperature, 150 or 200 mg oral, n=12", "value": "0.23 ± 0.34", "unit": "°C"}]}
